How the values were obtained:
Type in all cases: in vivo
[1] = tested on: wild oat (Avena fatua L.); assay: Test Example 4: pot test, soil treatment, visual growth inhibition; settings: soil, read-out: Growth inhibition rate (%) of wild oat Measured value
Experimental: (§1) Upland field soil was put into a 1/1,000,000 ha pot, and seeds of wild oat (Avena fatua L.) were sown. On the next day, predetermined amounts of ONEHOPE NYUZAI (tradename), Click (tradename) and a wettable powder containing bicyclopyrone prepared in accordance with a conventional formulation method were diluted with water (in an amount corresponding to 1,000 L/ha) and applied for soil treatment by a small sprayer.
(§2) On the 28th day after treatment, the state of growth of the wild oat was visually observed to determine the growth inhibition rate (%). The growth inhibition rate (%) (measured value) and the growth inhibition rate (%) calculated in the same manner as in the above Test Example 1 are shown in Table 4.

[2] = tested on: korean lespedeza (Kummerowia stipulacea (Maxim.) Makino); assay: Test Example 6: pot test, soil treatment, visual growth inhibition; settings: soil, read-out: Growth inhibition rate (%) of korean lespedeza Measured value
Experimental: as §1, with “1/300,000” for “1/1,000,000”, “korean lespedeza (Kummerowia stipulacea (Maxim.) Makino)” for “wild oat (Avena fatua L.)”, “Click (tradename), Mikado” for “Click”
as §2, with “14th” for “28th”, “korean lespedeza” for “wild oat”, “6.” for “4.”

[3] = tested on: sunn-hemp (Crotalaria juncea L.); assay: Test Example 7: pot test, soil treatment, visual growth inhibition; settings: soil, read-out: Growth inhibition rate (%) of sunn-hemp Measured value
Experimental: as §1, with “1/300,000” for “1/1,000,000”, “sunn-hemp (Crotalaria juncea” for “wild oat (Avena fatua”, “Click (tradename), Mikado” for “Click”
as §2, with “sunn-hemp” for “wild oat”, “7.” for “4.”

[4] = tested on: Japanese millet (Echinochloa utilis Ohwi et Yabuno); assay: Test Example 9: pot test, soil treatment, visual growth inhibition; settings: soil, read-out: Growth inhibition rate (%) of Japanese millet Measured value
Experimental: as §1, with “1/300,000” for “1/1,000,000”, “Japanese millet (Echinochloa utilis Ohwi et Yabuno)” for “wild oat (Avena fatua L.)”, “Click (tradename), Mikado” for “Click”
as §2, with “Japanese millet” for “wild oat”, “9.” for “4.”

[5] = tested on: annual ragweed (Ambrosia artemisiifolia L.); assay: Test Example 11: pot test, soil treatment, visual growth inhibition; settings: soil, read-out: Growth inhibition rate (%) of annual ragweed Measured value
Experimental: as §1, with “1/300,000” for “1/1,000,000”, “annual ragweed (Ambrosia artemisiifolia” for “wild oat (Avena fatua”, “Click (tradename), Mikado” for “Click”
as §2, with “annual ragweed” for “wild oat”, “11.” for “4.”

[6] = tested on: Japanese millet (Echinochloa utilis Ohwi et Yabuno); assay: Test Example 13: pot test, soil and foliar treatment, visual growth inhibition; settings: read-out: Growth inhibition rate (%) of Japanese millet Measured value
Experimental: as §1, with “Japanese millet (Echinochloa utilis Ohwi et Yabuno)” for “wild oat (Avena fatua L.)”, “sown. When the Japanese millet reached 3.8 to 4.0-leaf stage, seeds of Japanese millet were further sown in the same pot.” for “sown.”, “treatment and for foliar treatment” for “treatment”
as §2, with “Japanese millet” for “wild oat”, “13.” for “4.”

[7] = tested on: velvetleaf (Abutilon theophrasti Medic.); assay: Test Example 14: pot test, soil and foliar treatment, visual growth inhibition; settings: read-out: Growth inhibition rate (%) of velvetleaf Measured value
Text: (§3) Upland field soil was put into a 1/1,000,000 ha pot, and seeds of velvetleaf (Abutilon theophrasti Medic.) were sown. When the velvetleaf reached 4.0 to 4.3-leaf stage, seeds of velvetleaf were further sown in the same pot assuming conditions such that weeds would later grow. On the next day, predetermined amounts of ONEHOPE NYUZAI (tradename), Click (tradename), Callisto (tradename), Mikado (tradename), a wettable powder containing bicyclopyrone as an active ingredient and Clio (tradename) were diluted with water in an amount corresponding to 300 L/ha and applied for soil treatment and for foliar treatment by a small sprayer.
as §2, with “31 st” for “28th”, “velvetleaf” for “wild oat”, “14.” for “4.”

[8] = tested on: velvetleaf (Abutilon theophrasti Medic.); assay: Test Example 16: pot test, soil and foliar treatment, visual growth inhibition; settings: read-out: Growth inhibition rate (%) of velvetleaf Measured value
Text: as §3, with “Three days later,” for “On the next day,”
as §2, with “29th” for “28th”, “velvetleaf” for “wild oat”, “16.” for “4.”

[9] = tested on: common cocklebur (Xanthium strumarium L.); assay: Test Example 1: pot test, foliar treatment, visual growth inhibition; settings: 1000 g/ha, foliar treatment at 4.3 to 4.8-leaf stage, 22nd day after treatment, read-out: Growth inhibition rate (%) of common cocklebur Measured value
Text: In the present invention, a synergistic effect means a higher herbicidal activity of three active ingredients combined, than the simple sum of the respective herbicidal activities of the three active ingredients (the expected activity). The activity expected by the combination of three active ingredients can be calculated as follows (Colby S.R., "Weed", vol. 15, p. 20-22, 1967). […] Upland field soil was put into a 1/300,000 ha pot, and seeds of common cocklebur (Xanthium strumarium L.) were sown. […] Click, manufactured by BASF) and EC formulation containing dimethenamid-P as an active ingredient (tradename: Spectrum, manufactured by BASF) were diluted with water (in an amount corresponding to 1,000 L/ha) and applied for foliar treatment by a small sprayer. On the 22nd day after treatment, the state of growth of the common cocklebur was visually observed to determine the growth inhibition rate (%) in accordance with the following evalution standard. The growth inhibition rate (%) (measured value) and the growth inhibition rate (%) (calculated value) calculated by the Colby's formula are shown in Table 1.

[10] = tested on: rostrate sesbania (Sesbania rostrata Bremek. & Oberm.); assay: Test Example 8: pot test, soil treatment, visual growth inhibition; settings: 2000 g/ha, soil treatment, 28th day after treatment, read-out: Growth inhibition rate (%) of rostrate sesbania Measured value
Experimental: (§4) Upland field soil was put into a 1/300,000 ha pot, and seeds of rostrate sesbania (Sesbania rostrata Bremek. & Oberm.) were sown. On the next day, predetermined amounts of ONEHOPE NYUZAI (tradename), Click (tradename), Spectrum (tradename) and Clio (tradename) were diluted with water (in an amount corresponding to 1,000 L/ha) and applied for soil treatment by a small sprayer.
as §2, with “rostrate sesbania” for “wild oat”, “8.” for “4.”

[11] = tested on: prickly sida (Sida spinosa L.); assay: Test Example 10: pot test, soil treatment, visual growth inhibition; settings: 200 g/ha, soil treatment, 28th day after treatment, read-out: Growth inhibition rate (%) of prickly sida Measured value
Experimental: as §4, with “prickly sida (Sida spinosa L.)” for “rostrate sesbania (Sesbania rostrata Bremek. & Oberm.)”, “Spectrum (tradename), Callisto” for “Spectrum”
as §2, with “prickly sida” for “wild oat”, “10.” for “4.”

[12] = tested on: guinea grass (Panicum maximum Jacq.); assay: Test Example 15: pot test, soil and foliar treatment, visual growth inhibition; settings: Megathyrsus maximus, 31st day after treatment, read-out: Growth inhibition rate (%) of guinea grass Measured value
Experimental: (§5) Upland field soil was put into a 1/1,000,000 ha pot, and seeds of guinea grass (Panicum maximum Jacq.) were sown. When the guinea grass reached 5.2 to 6.0-leaf stage, seeds of guinea grass were further sown in the same pot assuming conditions such that weeds would later grow. On the next day, predetermined amounts of ONEHOPE NYUZAI (tradename), Click (tradename), Spectrum (tradename) and Cadou (tradename) were diluted with water in an amount corresponding to 300 L/ha and applied for soil treatment and for foliar treatment by a small sprayer.
as §2, with “31 st” for “28th”, “guinea grass” for “wild oat”, “15.” for “4.”

[13] = tested on: guinea grass (Panicum maximum Jacq.); assay: Test Example 17: pot test, soil and foliar treatment, visual growth inhibition; settings: Megathyrsus maximus, 1000 g/ha, 29th day after treatment, read-out: Growth inhibition rate (%) of guinea grass Measured value
Experimental: as §5, with “Three days later,” for “On the next day,”, “Click” for “Click (tradename), Spectrum”, “Spectrum” for “Cadou”
as §2, with “29th” for “28th”, “guinea grass” for “wild oat”, “17.” for “4.”

| Compound | inhibition at 100 g/ha [1] [%] | inhibition at 400 g/ha [2] [%] | inhibition at 25 g/ha [3] [%] | inhibition at 25 g/ha [4] [%] | inhibition at 100 g/ha [5] [%] | inhibition at 100 g/ha [6] [%] | inhibition at 50 g/ha [7] [%] | inhibition at 150 g/ha [7] [%] | inhibition at 75 g/ha [8] [%] | inhibition at 1000 g/ha [9] [%] | inhibition at 2000 g/ha [10] [%] | inhibition at 200 g/ha [11] [%] | inhibition at 500 g/ha ([12]; 500 g/ha) [%] | inhibition at 1000 g/ha ([12]; 1000 g/ha) [%] | inhibition at 1000 g/ha [13] [%] |
| --- | --- | --- | --- | --- | --- | --- | --- | --- | --- | --- | --- | --- | --- | --- | --- |
| COCCOCc1nc(C(F)(F)F)ccc1C(=O)C1=C(O)C2CCC(C2)C1=O (stereo not drawn) [Bicyclopyrone, 4-hydroxy-3-{2-[(2-methoxyethoxy)methyl]-6-(trifluoromethyl)-3-pyridylcarbonyl}bicyclo[3.2.1]oct-3-en-2-one] | 25 | 15 | 20 | 83 | 88 | 78 | 88 | 93 | 89 |  |  |  |  |  |  |
| COC[C@H](C)N(C(=O)CCl)c1c(C)csc1C [Dimethenamid-P, (S)-2-chloro-N-(2,4-dimethyl-3-thienyl)-N-(2-methoxy-1-methylethyl)acetamide] |  |  |  |  |  |  |  |  |  | 0 | 40 | 0 | 57 | 60 | 55 |
